# According to patent US6444617B1, “Fused-heterocycle dicarboxylic acid diamide derivatives or salts thereof, herbicide and usage thereof” (Nihon Nohyaku Co., Ltd., priority 1998, dated 2002):
# Legend:
# Assay type in all cases: in vivo
# [1] = test system: barnyard grass (Echinochloa crus-galli Beauv.); assay: Test Example 1: herbicidal effect on paddy field weeds before emergence; details: Dosage 5 kg/ha
# In short: (§1)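 Soil in pots is brought to paddy state and seeded with barnyard grass and bulrush; before germination, the soil receives a predetermined dosage of test compound in solution. After twenty-one days, control rate relative to untreated pots is calculated and graded.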
# [2] = test system: bulrush (Scirpus juncoides Roxb.); assay: as above; details: Dosage 5 kg/ha
# In short: as §1
# [3] = test system: barnyard grass (Echinochloa crus-galli Beauv.); assay: Test Example 2: herbicidal effect on paddy field weeds after emergence; details: Dosage 5 kg/ha; one-leaved stage; 21 days after treatment
# In short: (§2)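 Weeds in flooded paddy-soil pots were grown to the one-leaved stage, then the soil was treated with the compound solution at a set dosage.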
# [4] = test system: bulrush (Scirpus juncoides Roxb.); assay: as above; details: Dosage 5 kg/ha; one-leaved stage; 21 days after treatment
# In short: as §2
# [5] = test system: monochoria (Monochoria vaginalis Presl); assay: as above; details: Dosage 5 kg/ha; one-leaved stage; 21 days after treatment
# In short: as §2
# [6] = test system: barnyard grass (Echinochloa crus-galli Beauv.), Ec; assay: Test Example 3: herbicidal effect on upland weeds before emergence; details: dosage 5 kg/ha
# In short: (§3)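 Herbicidal activity was rated from kill rate determined 14 days post-spray, the compound having been applied pre-emergence as a liquid agent.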
# [7] = test system: bird's eye speedwell (Veronica persica Poir.), Vp; assay: as above; details: dosage 5 kg/ha
# In short: as §3
# [8] = test system: cleavers (Galium aparine L.), Ga; assay: as above; details: dosage 5 kg/ha
# In short: as §3
# [9] = test system: cocklebur (Xanthium strumarium L.), Xs; assay: as above; details: dosage 5 kg/ha
# In short: as §3
# [10] = test system: forxtail grass (Alopecurus aequalis var. amurensis Ohwi), Am; assay: as above; details: foxtail grass, dosage 5 kg/ha
# In short: as §3
# [11] = test system: velvetleaf (Abutilon theophtasti L.), At; assay: as above; details: dosage 5 kg/ha
# In short: as §3
# [12] = test system: soybean plant (So); assay: Test Example 3: phytotoxicity to upland crop plants, treatment before emergence; details: dosage 5 kg/ha
# In short: (§4)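 Crops treated before emergence with sprayed liquid preparation of compound (prescribed concentration). Day 14: phytotoxicity graded per criterion.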
# [13] = test system: wheat (Wh); assay: as above; details: dosage 5 kg/ha
# In short: as §4
# [14] = test system: barnyard grass (Echinochloa crus-galli Beauv.), Ec; assay: Test Example 4: herbicidal effect on upland weeds after emergence; details: dosage 5 kg/ha; sprayed after emergence; judged 14 days after treatment
# In short: (§5)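 Upland weeds and crop plants (soybean, wheat) are grown from seed in soil until they reach given leaf stages, then treated by spraying with the compound-containing agent; effects are judged two weeks later.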
# [15] = test system: bird's eye speedwell (Veronica persica Poir.), Vp; assay: as above; details: dosage 5 kg/ha; sprayed after emergence; judged 14 days after treatment
# In short: as §5
# [16] = test system: cleavers (Galium aparine L.), Ga; assay: as above; details: dosage 5 kg/ha; sprayed after emergence; judged 14 days after treatment
# In short: as §5
# [17] = test system: cocklebur (Xanthium strumarium L.), Xs; assay: as above; details: dosage 5 kg/ha; sprayed after emergence; judged 14 days after treatment
# In short: as §5
# [18] = test system: forxtail grass (Alopecurus aequalis var. amurensis Ohwi), Am; assay: as above; details: dosage 5 kg/ha; sprayed after emergence; judged 14 days after treatment
# In short: as §5
# [19] = test system: velvetleaf (Abutilon theophtasti L.), At; assay: as above; details: dosage 5 kg/ha; sprayed after emergence; judged 14 days after treatment
# In short: as §5
# [20] = test system: soybean plant; assay: Test Example 4: phytotoxicity to upland crop plants, treatment after emergence; details: dosage 5 kg/ha, sprayed after emergence, judged 14 days after treatment
# In short: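 Post-emergence foliar spray at a prescribed concentration, applied once the sown weeds and soybean reached defined leaf stages in soil vats; herbicidal effect and soybean injury scored after 14 days.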
# [21] = test system: wheat; assay: as above; details: dosage 5 kg/ha, sprayed after emergence, judged 14 days after treatment
# In short: as §5
smiles,measurement,setting,value
CCNC(=O)c1nc2ccc(OC)cc2cc1C(=O)Nc1c(CC)ccc(Cl)c1CC [compound 289],Pre-emergence treatment Barnyard grass (herbicidal effect),[1],5 (Weed-killing rate is 100%.)
same,Pre-emergence treatment Bulrush (herbicidal effect),[2],5 (Weed-killing rate is 100%.)
same,Post-emergence treatment Barnyard grass (herbicidal effect),[3],5 (Weed-killing rate is 100%.)
same,Post-emergence treatment Bulrush (herbicidal effect),[4],4 (Weed-killing rate is 90-99%.)
same,Post-emergence treatment Monochoria (herbicidal effect),[5],5 (Weed-killing rate is 100%.)
same,Herbicidal effect Ec,[6],5 (Weed-killing rate is 100%.)
same,Herbicidal effect Vp,[7],5 (Weed-killing rate is 100%.)
same,Herbicidal effect Ga,[8],4 (Weed-killing rate is 90-99%.)
same,Herbicidal effect Xs,[9],3 (Weed-killing rate is 70-89%.)
same,Herbicidal effect Am,[10],4 (Weed-killing rate is 90-99%.)
same,Herbicidal effect At,[11],5 (Weed-killing rate is 100%.)
same,Phytotoxicity So,[12],1 (Crop-killing rate is 1-39%.)
same,Phytotoxicity Wh,[13],2 (Crop-killing rate is 40-69%.)
same,Herbicidal effect Ec,[14],5 (Weed-killing rate is 100%.)
same,Herbicidal effect Vp,[15],5 (Weed-killing rate is 100%.)
same,Herbicidal effect Ga,[16],4 (Weed-killing rate is 90-99%.)
same,Herbicidal effect Xs,[17],3 (Weed-killing rate is 70-89%.)
same,Herbicidal effect Am,[18],4 (Weed-killing rate is 90-99%.)
same,Herbicidal effect At,[19],5 (Weed-killing rate is 100%.)
same,Phytotoxicity So,[20],1 (Crop-killing rate is 1-39%.)
same,Phytotoxicity Wh,[21],2 (Crop-killing rate is 40-69%.)
CCCNC(=O)c1nc2ccc(OC)cc2cc1C(=O)Nc1c(CC)ccc(Cl)c1CC [compound 290],Pre-emergence treatment Barnyard grass (herbicidal effect),[1],5 (Weed-killing rate is 100%.)
same,Pre-emergence treatment Bulrush (herbicidal effect),[2],5 (Weed-killing rate is 100%.)
same,Post-emergence treatment Barnyard grass (herbicidal effect),[3],5 (Weed-killing rate is 100%.)
same,Post-emergence treatment Bulrush (herbicidal effect),[4],5 (Weed-killing rate is 100%.)
same,Post-emergence treatment Monochoria (herbicidal effect),[5],5 (Weed-killing rate is 100%.)
same,Herbicidal effect Ec,[6],5 (Weed-killing rate is 100%.)
same,Herbicidal effect Vp,[7],5 (Weed-killing rate is 100%.)
same,Herbicidal effect Ga,[8],5 (Weed-killing rate is 100%.)
same,Herbicidal effect Xs,[9],4 (Weed-killing rate is 90-99%.)
same,Herbicidal effect Am,[10],5 (Weed-killing rate is 100%.)
same,Herbicidal effect At,[11],5 (Weed-killing rate is 100%.)
same,Phytotoxicity So,[12],1 (Crop-killing rate is 1-39%.)
same,Phytotoxicity Wh,[13],2 (Crop-killing rate is 40-69%.)
same,Herbicidal effect Ec,[14],5 (Weed-killing rate is 100%.)
same,Herbicidal effect Vp,[15],5 (Weed-killing rate is 100%.)
same,Herbicidal effect Ga,[16],5 (Weed-killing rate is 100%.)
same,Herbicidal effect Xs,[17],4 (Weed-killing rate is 90-99%.)
same,Herbicidal effect Am,[18],5 (Weed-killing rate is 100%.)
same,Herbicidal effect At,[19],5 (Weed-killing rate is 100%.)
same,Phytotoxicity So,[20],2 (Crop-killing rate is 40-69%.)
same,Phytotoxicity Wh,[21],3 (Crop-killing rate is 70-89%.)
CCc1ccc(Cl)c(CC)c1NC(=O)c1cc2cc(OC)ccc2nc1C(=O)NOC(C)C [compound 291],Pre-emergence treatment Barnyard grass (herbicidal effect),[1],5 (Weed-killing rate is 100%.)
same,Pre-emergence treatment Bulrush (herbicidal effect),[2],4 (Weed-killing rate is 90-99%.)
same,Post-emergence treatment Barnyard grass (herbicidal effect),[3],5 (Weed-killing rate is 100%.)
same,Post-emergence treatment Bulrush (herbicidal effect),[4],4 (Weed-killing rate is 90-99%.)
same,Post-emergence treatment Monochoria (herbicidal effect),[5],5 (Weed-killing rate is 100%.)
same,Herbicidal effect Ec,[6],5 (Weed-killing rate is 100%.)
same,Herbicidal effect Vp,[7],5 (Weed-killing rate is 100%.)
same,Herbicidal effect Ga,[8],5 (Weed-killing rate is 100%.)
same,Herbicidal effect Xs,[9],4 (Weed-killing rate is 90-99%.)
same,Herbicidal effect Am,[10],4 (Weed-killing rate is 90-99%.)
same,Herbicidal effect At,[11],5 (Weed-killing rate is 100%.)
same,Phytotoxicity So,[12],0 (Crop-killing rate is 0-20% (No Phytotoxicity).)
same,Phytotoxicity Wh,[13],1 (Crop-killing rate is 1-39%.)
same,Herbicidal effect Ec,[14],5 (Weed-killing rate is 100%.)
same,Herbicidal effect Vp,[15],5 (Weed-killing rate is 100%.)
same,Herbicidal effect Ga,[16],4 (Weed-killing rate is 90-99%.)
same,Herbicidal effect Xs,[17],4 (Weed-killing rate is 90-99%.)
same,Herbicidal effect Am,[18],4 (Weed-killing rate is 90-99%.)
same,Herbicidal effect At,[19],5 (Weed-killing rate is 100%.)
same,Phytotoxicity So,[20],2 (Crop-killing rate is 40-69%.)
same,Phytotoxicity Wh,[21],2 (Crop-killing rate is 40-69%.)
CCCNC(=O)c1nc2cc(OC)c(OC)cc2cc1C(=O)Nc1c(CC)ccc(Cl)c1CC [compound 305],Pre-emergence treatment Barnyard grass (herbicidal effect),[1],5 (Weed-killing rate is 100%.)
same,Pre-emergence treatment Bulrush (herbicidal effect),[2],4 (Weed-killing rate is 90-99%.)
same,Post-emergence treatment Barnyard grass (herbicidal effect),[3],4 (Weed-killing rate is 90-99%.)
same,Post-emergence treatment Bulrush (herbicidal effect),[4],3 (Weed-killing rate is 70-89%.)
same,Post-emergence treatment Monochoria (herbicidal effect),[5],5 (Weed-killing rate is 100%.)
same,Herbicidal effect Ec,[6],5 (Weed-killing rate is 100%.)
same,Herbicidal effect Vp,[7],4 (Weed-killing rate is 90-99%.)
same,Herbicidal effect Ga,[8],3 (Weed-killing rate is 70-89%.)
same,Herbicidal effect Xs,[9],3 (Weed-killing rate is 70-89%.)
same,Herbicidal effect Am,[10],4 (Weed-killing rate is 90-99%.)
same,Herbicidal effect At,[11],4 (Weed-killing rate is 90-99%.)
same,Phytotoxicity So,[12],0 (Crop-killing rate is 0-20% (No Phytotoxicity).)
same,Phytotoxicity Wh,[13],2 (Crop-killing rate is 40-69%.)
same,Herbicidal effect Ec,[14],4 (Weed-killing rate is 90-99%.)
same,Herbicidal effect Vp,[15],4 (Weed-killing rate is 90-99%.)
same,Herbicidal effect Ga,[16],2 (Weed-killing rate is 40-69%.)
same,Herbicidal effect Xs,[17],2 (Weed-killing rate is 40-69%.)
same,Herbicidal effect Am,[18],3 (Weed-killing rate is 70-89%.)
same,Herbicidal effect At,[19],4 (Weed-killing rate is 90-99%.)
same,Phytotoxicity So,[20],1 (Crop-killing rate is 1-39%.)
same,Phytotoxicity Wh,[21],2 (Crop-killing rate is 40-69%.)
CCc1ccc(Cl)c(CC)c1NC(=O)c1cc2cc(OC)c(OC)cc2nc1C(=O)NCC(C)C [compound 310],Pre-emergence treatment Barnyard grass (herbicidal effect),[1],4 (Weed-killing rate is 90-99%.)
same,Pre-emergence treatment Bulrush (herbicidal effect),[2],3 (Weed-killing rate is 70-89%.)
same,Post-emergence treatment Barnyard grass (herbicidal effect),[3],3 (Weed-killing rate is 70-89%.)
same,Post-emergence treatment Bulrush (herbicidal effect),[4],2 (Weed-killing rate is 40-69%.)
same,Post-emergence treatment Monochoria (herbicidal effect),[5],5 (Weed-killing rate is 100%.)
same,Herbicidal effect Ec,[6],4 (Weed-killing rate is 90-99%.)
same,Herbicidal effect Vp,[7],4 (Weed-killing rate is 90-99%.)
same,Herbicidal effect Ga,[8],3 (Weed-killing rate is 70-89%.)
same,Herbicidal effect Xs,[9],3 (Weed-killing rate is 70-89%.)
same,Herbicidal effect Am,[10],4 (Weed-killing rate is 90-99%.)
same,Herbicidal effect At,[11],4 (Weed-killing rate is 90-99%.)
same,Phytotoxicity So,[12],0 (Crop-killing rate is 0-20% (No Phytotoxicity).)
same,Phytotoxicity Wh,[13],2 (Crop-killing rate is 40-69%.)
same,Herbicidal effect Ec,[14],4 (Weed-killing rate is 90-99%.)
same,Herbicidal effect Vp,[15],3 (Weed-killing rate is 70-89%.)
same,Herbicidal effect Ga,[16],2 (Weed-killing rate is 40-69%.)
same,Herbicidal effect Xs,[17],3 (Weed-killing rate is 70-89%.)
same,Herbicidal effect Am,[18],3 (Weed-killing rate is 70-89%.)
same,Herbicidal effect At,[19],4 (Weed-killing rate is 90-99%.)
same,Phytotoxicity So,[20],0 (Crop-killing rate is 0-20% (No Phytotoxicity).)
same,Phytotoxicity Wh,[21],2 (Crop-killing rate is 40-69%.)
